Test results as given in ChEMBL document CHEMBL1201862, “PubChem BioAssay data set” (2004).
Activity calls are given as the source filed them.

How the values were obtained:
[1] = system: INS1; test: beta cell apoptosis inhibitors, cytokine rescue, dose response, luminescence, retest (AID 449756); format: functional, cell-based; settings: Rattus norvegicus;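 also: cell death triggered by IL-1 beta plus TNF-alpha plus IFN-gamma mixture; protective hits raise ATP signal compared with cytokine alone wells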
[2] = system: H9c2; test: cells; format: functional, cell-based; settings: Rattus norvegicus, H9c2, Myocardium;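 also: confirmatory concentration-response retest of ultra-high-throughput screening hits for modulation of myocardial damage; cell death induced by hydrogen peroxide oxidative stress; compound pretreatment for 60 min then peroxide exposure for 2 h; potency is for protecting the cells against peroxide damage rather than for killing them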
[3] = molecular target: Cytochrome P450 2C19 (Homo sapiens, UniProt P33261); test: Cytochrome panel assay with activity outcomes. Panel member name: p450-cyp2c19 Compounds with AC50 equal or less than 10 uM are considered active; format: functional; settings: read-out: AC50
[4] = molecular target: Cytochrome P450 2C9 (Homo sapiens, UniProt P11712)
[5] = molecular target: T1, Cytochrome P450 1A2 (Homo sapiens, UniProt P05177);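 also: PubChem cytochrome P450 panel assay, CYP1A2 panel member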
T1 sequence (P05177 whole entry): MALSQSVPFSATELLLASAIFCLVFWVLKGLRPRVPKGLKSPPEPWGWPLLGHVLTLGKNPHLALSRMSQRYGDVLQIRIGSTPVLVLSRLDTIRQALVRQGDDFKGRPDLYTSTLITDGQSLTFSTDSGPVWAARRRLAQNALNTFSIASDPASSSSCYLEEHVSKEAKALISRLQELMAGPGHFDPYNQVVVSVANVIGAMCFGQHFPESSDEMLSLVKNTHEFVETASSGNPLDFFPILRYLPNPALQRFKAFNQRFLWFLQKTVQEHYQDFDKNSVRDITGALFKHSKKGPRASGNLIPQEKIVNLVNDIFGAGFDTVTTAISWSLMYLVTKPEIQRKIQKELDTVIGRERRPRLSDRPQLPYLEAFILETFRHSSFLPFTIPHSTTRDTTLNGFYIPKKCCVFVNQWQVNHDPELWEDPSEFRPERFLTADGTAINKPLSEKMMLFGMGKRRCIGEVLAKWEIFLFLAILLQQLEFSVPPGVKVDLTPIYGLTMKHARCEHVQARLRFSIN

[6] = microbe, parasite or virus in culture; format: functional; settings: Mycobacterium tuberculosis
[7] = HepG2 cell cytotoxicity, dose response, cytotoxicity control for Shn3 inhibitor project, CellTiter-Glo, cherry-picked (AID 624134); format: functional, cell-based
[8] = Shn3 3'UTR reporter inhibitors, dose response, cell-based, Clone20 osteoblasts, firefly luciferase, cherry-picked (AID 624132); format: functional;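 also: firefly luciferase luminescence from reporter carrying the Shn3 3'UTR in osteoblasts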
[9] = control 3'UTR Renilla luciferase suppression, dose response, counter-screen for Shn3 inhibitor project, cell-based, Clone20-Shn3RL, cherry-picked (AID 624133); format: functional
[10] = cells; format: functional
[11] = molecular target: T2, Leucine aminopeptidase (Plasmodium falciparum 3D7, UniProt Q8IL11); test: P. falciparum M17LAP inhibitors, primary screen, biochemical, fluorogenic H-Leu-NHMec substrate, 1536-well (AID 1619); format: functional
T2 sequence (Q8IL11 whole entry): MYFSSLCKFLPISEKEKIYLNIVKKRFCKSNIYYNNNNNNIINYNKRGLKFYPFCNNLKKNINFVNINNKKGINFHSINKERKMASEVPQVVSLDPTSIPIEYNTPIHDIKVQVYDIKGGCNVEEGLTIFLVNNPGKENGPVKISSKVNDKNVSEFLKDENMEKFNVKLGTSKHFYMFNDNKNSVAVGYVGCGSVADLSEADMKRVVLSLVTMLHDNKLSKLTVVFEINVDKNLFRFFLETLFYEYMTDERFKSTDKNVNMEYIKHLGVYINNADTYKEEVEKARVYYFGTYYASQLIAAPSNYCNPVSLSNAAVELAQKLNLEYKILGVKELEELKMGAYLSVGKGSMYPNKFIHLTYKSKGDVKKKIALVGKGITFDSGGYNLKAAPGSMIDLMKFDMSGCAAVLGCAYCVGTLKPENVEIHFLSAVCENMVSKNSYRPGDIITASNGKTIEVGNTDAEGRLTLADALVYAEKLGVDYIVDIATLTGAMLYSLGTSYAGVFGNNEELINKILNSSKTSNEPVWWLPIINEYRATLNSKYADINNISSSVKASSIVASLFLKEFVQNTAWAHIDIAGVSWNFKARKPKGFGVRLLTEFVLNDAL

[12] = molecular target: T3, Protein skinhead-1 (Caenorhabditis elegans, UniProt P34707); format: functional
T3 sequence (P34707 whole entry): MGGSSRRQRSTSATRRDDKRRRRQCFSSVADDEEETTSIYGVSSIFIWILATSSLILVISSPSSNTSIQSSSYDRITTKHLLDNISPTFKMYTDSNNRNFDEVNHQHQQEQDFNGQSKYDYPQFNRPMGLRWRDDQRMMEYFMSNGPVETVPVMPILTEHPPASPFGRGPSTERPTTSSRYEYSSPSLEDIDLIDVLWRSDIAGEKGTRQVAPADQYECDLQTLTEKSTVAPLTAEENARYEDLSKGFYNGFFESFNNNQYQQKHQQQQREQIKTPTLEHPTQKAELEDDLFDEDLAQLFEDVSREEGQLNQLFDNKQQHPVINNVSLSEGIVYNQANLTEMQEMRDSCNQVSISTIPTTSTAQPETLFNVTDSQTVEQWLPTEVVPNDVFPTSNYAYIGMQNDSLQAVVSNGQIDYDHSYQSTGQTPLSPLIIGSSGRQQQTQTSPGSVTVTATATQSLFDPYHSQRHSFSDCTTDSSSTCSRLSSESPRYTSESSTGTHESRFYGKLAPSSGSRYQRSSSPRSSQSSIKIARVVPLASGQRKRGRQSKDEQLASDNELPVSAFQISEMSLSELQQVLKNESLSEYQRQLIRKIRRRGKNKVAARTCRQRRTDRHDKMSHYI

[13] = system: SN12K1; test: cells; format: functional; settings: Homo sapiens
[14] = system: P388/ADR; test: cells; format: functional; settings: Mus musculus
[15] = system: P388; test: cells; format: functional; settings: Mus musculus
[16] = inhibitors of HIV Env-driven cell fusion, dose response, cherry-pick (AID 652057); format: functional, cell-based
[17] = molecular target: Cytochrome P450 3A4 (Homo sapiens, UniProt P08684);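 also: CYP3A4 tested as one member of a cytochrome P450 panel screen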
Sequence of Cytochrome P450 3A4 (P08684 whole entry): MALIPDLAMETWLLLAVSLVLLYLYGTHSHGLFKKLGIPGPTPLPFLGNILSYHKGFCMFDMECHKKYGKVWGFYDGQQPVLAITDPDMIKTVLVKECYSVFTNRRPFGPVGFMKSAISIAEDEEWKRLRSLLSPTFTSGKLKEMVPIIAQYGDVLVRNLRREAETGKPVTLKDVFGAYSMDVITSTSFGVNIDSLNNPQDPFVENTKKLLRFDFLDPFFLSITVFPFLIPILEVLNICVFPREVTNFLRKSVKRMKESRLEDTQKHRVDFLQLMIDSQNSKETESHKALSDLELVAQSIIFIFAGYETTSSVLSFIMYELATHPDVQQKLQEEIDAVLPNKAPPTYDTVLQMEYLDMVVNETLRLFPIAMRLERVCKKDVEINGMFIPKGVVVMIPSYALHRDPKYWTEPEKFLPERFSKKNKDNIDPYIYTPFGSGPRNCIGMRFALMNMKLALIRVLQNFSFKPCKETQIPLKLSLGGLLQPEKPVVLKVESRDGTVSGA

Sequence of Cytochrome P450 2C9 (P11712 whole entry): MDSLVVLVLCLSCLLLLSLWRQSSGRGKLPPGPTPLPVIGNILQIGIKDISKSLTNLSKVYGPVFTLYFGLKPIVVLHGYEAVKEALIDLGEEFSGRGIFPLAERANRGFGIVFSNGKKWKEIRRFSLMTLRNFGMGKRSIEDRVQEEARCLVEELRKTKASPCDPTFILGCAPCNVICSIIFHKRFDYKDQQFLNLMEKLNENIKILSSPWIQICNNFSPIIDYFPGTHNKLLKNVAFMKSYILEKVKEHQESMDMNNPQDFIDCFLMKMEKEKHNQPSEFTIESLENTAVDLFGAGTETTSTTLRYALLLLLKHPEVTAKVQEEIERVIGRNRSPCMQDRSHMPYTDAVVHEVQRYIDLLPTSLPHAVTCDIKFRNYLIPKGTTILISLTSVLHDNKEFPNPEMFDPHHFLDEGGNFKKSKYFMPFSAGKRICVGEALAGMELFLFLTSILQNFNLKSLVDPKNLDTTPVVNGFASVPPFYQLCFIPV
Sequence of Cytochrome P450 2C19 (P33261 whole entry): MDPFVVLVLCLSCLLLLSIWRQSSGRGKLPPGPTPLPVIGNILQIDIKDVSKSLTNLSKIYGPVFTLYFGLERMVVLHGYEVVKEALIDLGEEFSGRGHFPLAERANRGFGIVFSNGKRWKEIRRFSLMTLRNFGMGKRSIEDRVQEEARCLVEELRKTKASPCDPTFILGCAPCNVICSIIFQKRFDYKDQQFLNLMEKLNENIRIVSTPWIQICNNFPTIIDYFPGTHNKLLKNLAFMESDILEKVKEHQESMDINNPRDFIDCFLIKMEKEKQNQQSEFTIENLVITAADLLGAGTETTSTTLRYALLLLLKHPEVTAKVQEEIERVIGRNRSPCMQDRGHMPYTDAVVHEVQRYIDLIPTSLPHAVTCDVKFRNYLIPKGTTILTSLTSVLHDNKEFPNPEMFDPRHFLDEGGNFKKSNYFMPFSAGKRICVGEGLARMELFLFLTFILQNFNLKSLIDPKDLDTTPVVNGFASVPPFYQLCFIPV

Compound | GI50 [13] | GI50 [14] | GI50 [15] | further results
Cc1ccc(S(=O)(=O)N2CCOCC2)cc1C(=O)Nc1nc(-c2ccccn2)cs1 |  |  |  | AC50 [1]: 2.19 µM (active); IC50 [2]: 11.3 µM (active)
COc1ccc(Sc2nc3ccccc3n3c(C(F)(F)F)nnc23)cc1 |  |  |  | AC50 [3]: 35.5 µM (inconclusive); AC50 [4]: inconclusive; AC50 [5]: 3.16 µM (inconclusive)
CCc1nc(N2CCN(C(C)=O)CC2)c2c3c(sc2n1)CC(C(C)(C)C)CC3 (configuration not stated) |  |  |  | CC50 [6]: > 40 µM (active); AC50 [7]: 58.6 µM (active); AC50 [1]: 3.36 µM (active); AC50 [8]: 6.76 µM (active); AC50 [9]: 11.3 µM (active)
O=C(NCc1cccs1)c1cc(-c2ccc(O)cc2)on1 |  |  |  | IC50 [10]: 45 µM (active)
O=S(=O)(Nc1ccc(C(F)(F)F)cc1)c1c[nH]cn1 |  |  |  | IC50 [11]: 28.3 µM (active); IC50 [12]: > 100 µM (inactive)
Cc1ccc(-n2cc(-c3ccccc3)c3c(N4CCOCC4)ncnc32)cc1 |  |  |  | IC50 [2]: > 79 µM (inactive)
CSc1nnc(NC(=O)c2cc3ccccc3oc2=O)s1 |  |  |  | IC50 [2]: > 79 µM (inactive)
CCS(=O)(=O)N1CCC(C(=O)NCc2ccccc2OC)CC1 |  |  |  | AC50 [4]: inconclusive
O=C(COC(=O)c1ccc([N+](=O)[O-])o1)Nc1ccc(N2CCOCC2)cc1 |  |  |  | IC50 [2]: > 79 µM (inactive)
COc1ccc(C2CC(c3sc(Nc4ccc(C)cc4)nc3C)=NN2)cc1 (configuration not stated) | 14.9 µM (inactive) | 4.99 µM (inactive) | 6.79 µM (inactive) | 
O=NN(CCCl)C(=O)N[C@H]1CC[C@H](C(=O)O)CC1 | > 100 µM (inactive) | 7.1 µM (inactive) | 4.86 µM (inactive) | 
NC(CN(O)N=O)C(=O)O (configuration not stated) | 0.792 µM (active) | 8.45 µM (inactive) | 16.5 µM (inactive) | 
C[C@@H]1CN([C@@H](C)CO)C(=O)Cc2cc(NC(=O)c3ccncc3)ccc2O[C@H]1CN(C)Cc1ccc(Cl)c(Cl)c1 |  |  |  | AC50 [16]: 30.4 µM (active)
C=C1CC(OC)(C(O)C(=O)N[C@H]2OCO[C@H]3C2O[C@H](C[C@@H](COC)OC)C(C)(C)C3OC)O[C@H](C)[C@@H]1C (some centres not stated) | < 0.00482 µM (active) | < 0.00482 µM (active) | < 0.00482 µM (active) | 
C=C1C(=O)C[C@@]23CCC[C@@]12CC(OCOC)C3 (some centres not stated) | 1.84 µM (inactive) | 0.531 µM (active) | 0.431 µM (active) | 
CN1C(=O)/C(=C/c2ccco2)S/C1=N/c1cccc(C(=O)O)c1 |  |  |  | IC50 [11]: 50.6 µM (active)
FC(F)(F)c1ccc(/C=N/N2CCN(Cc3cccc4ccccc34)CC2)cc1 |  |  |  | AC50 [3]: 11.2 µM (inconclusive); AC50 [4]: inconclusive
NC(=O)c1ncn2c1NC(=O)CC2 | > 100 µM (inactive) | > 100 µM (inactive) | > 31.6 µM (inactive) | 
COc1cc(NS(C)(=O)=O)ccc1Nc1c2ccccc2nc2ccccc12 [AMSACRINE] | 0.106 µM (active) | 0.265 µM (active) | 0.0318 µM (active) | AC50 [17]: 20 µM (inconclusive); AC50 [4]: inconclusive
COc1cc(C[C@H]2c3cc(OC)c(OC)cc3CCN2C)c(Oc2cc3c(cc2OC)-c2c(OC)c(OC)cc4c2[C@H](C3)N(C)CC4)cc1OC [THALICARPINE] | 7.93 µM (inactive) | 8.51 µM (inactive) | 4.24 µM (inactive) | 
